Patent US20230293407A1, “Compositions Comprising (Bio)-Alkanediols with Antimicrobials for Product Protection” (Symrise AG, priority 2020, published 2023)

Legend:
[1] = system: Pseudomonas aeruginosa; assay: preservation efficacy test (PET), European Pharmacopoeia 5.1.3; type: cell-based
[2] = system: Staphylococcus aureus; assay: as above; type: cell-based
[3] = system: Escherichia coli; assay: as above; type: cell-based; conditions: for number of microorganisms, 14 days / number of microorganisms, 28 days: Escherichia coli (EC)
[4] = system: Candida albicans; assay: as above; type: cell-based; conditions: for count at 2 days / count at 7 days / count at 14 days / count at 28 days: CA, use concentration in label
[5] = system: Aspergillus brasiliensis; assay: as above; type: cell-based; conditions: for count at 2 days / count at 7 days / count at 14 days / count at 28 days: AB, use concentration in label
[6] = system: bacteria; assay: preservation efficacy test (PET), overview of the effect against bacteria; type: cell-based; conditions: PET in formulation, result in words on Table 7
[7] = system: yeast; assay: preservation efficacy test (PET), overview of the effect against yeast; type: cell-based, Candida albicans; conditions: PET in formulation, result in words on Table 7
[8] = system: fungi/mould; assay: preservation efficacy test (PET), overview of the effect against fungi/mould; type: cell-based, Aspergillus brasiliensis; conditions: PET in formulation, result in words on Table 7
[9] = maximum water solubility of alkanediols, visual observation; type: physicochemical; conditions: ambient temperature after 24 h storage at 5° C.
Excerpt: The water solubility of a substance is the saturation mass concentration of the substance in water at a given temperature. The determination of the solubility in water relates to essentially pure substances which are stable in water and not volatile. The determination of the water solubility of the alkanediols is further described in the following Example 2.
For the determination of the maximum water solubility of an alkanediol, water and different concentrations of the respective alkanediol were blended by stirring. […] The determination of whether the alkanediol has dissolved in water is based entirely on visual observation.

[10] = 14 days after inoculation, substance at given % in test formulation
[11] = 28 days after inoculation, substance at given % in test formulation
[12] = 2 days after inoculation, substance at given % in test formulation, listed as 0.2% 1,2-heptanediol
[13] = 7 days after inoculation, substance at given % in test formulation, listed as 0.2% 1,2-heptanediol
[14] = 28 days after inoculation, substance at given % in test formulation, listed as 0.2% 1,2-heptanediol
[15] = 28 days after inoculation, substance at given % in test formulation, listed as 0.4% 1,2-heptanediol
[16] = 2 days after inoculation, listed as 0.6% 1,2-heptanediol
[17] = 2 days after inoculation, listed as 0.8% 1,2-heptanediol
[18] = 7 days after inoculation, listed as 0.6% 1,2-heptanediol
[19] = 7 days after inoculation, listed as 0.8% 1,2-heptanediol
[20] = 14 days after inoculation, listed as 0.6% 1,2-heptanediol
[21] = 14 days after inoculation, listed as 0.8% 1,2-heptanediol
[22] = 28 days after inoculation, listed as 0.6% 1,2-heptanediol
[23] = 28 days after inoculation, listed as 0.8% 1,2-heptanediol

CCCCCC(O)CO (stereo not drawn) [1,2-heptanediol]
PA germ count, 2 days ([1]; 2 days after inoculation, substance at given % in test formulation): 1 | PA germ count, 7 days ([1]; 7 days after inoculation, substance at given % in test formulation): 1 | PA germ count, 14 days [1, 10]: 1 | PA germ count, 28 days [1, 11]: 1 | count at 2 days ([1]; PA, 2 days after inoculation, use concentration in label): 1 | count at 7 days ([1]; PA, 7 days after inoculation, use concentration in label): 1 | count at 14 days ([1]; PA, 14 days after inoculation, use concentration in label): 1 | count at 28 days ([1]; PA, 28 days after inoculation, use concentration in label): 1 | SA germ count, 2 days [2, 12]: 95.000 | SA germ count, 7 days [2, 13]: 1 | SA germ count, 14 days [2, 10]: 1 | SA germ count, 28 days [2, 11]: 1 | number of microorganisms, 2 days ([2]; PET in shampoo, Staphylococcus aureus (SA), 2 days after inoculation): 10 | number of microorganisms, 7 days ([2]; PET in shampoo, Staphylococcus aureus (SA), 7 days after inoculation): 10 | number of microorganisms, 14 days ([2]; PET in shampoo, Staphylococcus aureus (SA), 14 days after inoculation): 1 | number of microorganisms, 28 days ([2]; PET in shampoo, Staphylococcus aureus (SA), 28 days after inoculation): 1 | number of microorganisms, 14 days ([2]; PET, Staphylococcus aureus (SA), 14 days after inoculation): 1 | number of microorganisms, 28 days ([2]; PET, Staphylococcus aureus (SA), 28 days after inoculation): 1 | count at 2 days ([2]; SA, 2 days after inoculation, use concentration in label, listed as 0.6% 1,2-heptanediol): 1 | count at 2 days ([2]; SA, 2 days after inoculation, use concentration in label, listed as 0.8% 1,2-heptanediol): 1 | count at 7 days ([2]; SA, 7 days after inoculation, use concentration in label, listed as 0.6% 1,2-heptanediol): 1 | count at 7 days ([2]; SA, 7 days after inoculation, use concentration in label, listed as 0.8% 1,2-heptanediol): 1 | count at 14 days ([2]; SA, 14 days after inoculation, use concentration in label): 1 | count at 28 days ([2]; SA, 28 days after inoculation, use concentration in label): 1 | EC germ count, 2 days [3, 12]: 38.000 | EC germ count, 7 days [3, 13]: 73 | EC germ count, 14 days ([3]; 14 days after inoculation, substance at given % in test formulation, listed as 0.2% 1,2-heptanediol): 1 | EC germ count, 14 days ([3]; 14 days after inoculation, substance at given % in test formulation, listed as 0.4% 1,2-heptanediol): 1 | EC germ count, 28 days [3, 14]: 1 | EC germ count, 28 days [3, 15]: 1 | count at 2 days ([3]; EC, 2 days after inoculation, use concentration in label, listed as 0.6% 1,2-heptanediol): 1 | count at 2 days ([3]; EC, 2 days after inoculation, use concentration in label, listed as 0.8% 1,2-heptanediol): 1 | count at 7 days ([3]; EC, 7 days after inoculation, use concentration in label, listed as 0.6% 1,2-heptanediol): 1 | count at 7 days ([3]; EC, 7 days after inoculation, use concentration in label, listed as 0.8% 1,2-heptanediol): 1 | count at 14 days ([3]; EC, 14 days after inoculation, use concentration in label): 1 | count at 28 days ([3]; EC, 28 days after inoculation, use concentration in label): 1 | number of microorganisms, 14 days ([3]; PET in shampoo, 14 days after inoculation): 200.000 | number of microorganisms, 28 days ([3]; PET in shampoo, 28 days after inoculation): 1 | number of microorganisms, 14 days ([3]; PET, 14 days after inoculation): 1 | number of microorganisms, 28 days ([3]; PET, 28 days after inoculation): 1 | CA germ count, 28 days [4, 14]: 620.000 | count at 2 days [4, 16]: 69.000 | count at 2 days [4, 17]: 68.000 | count at 7 days [4, 18]: 2.800 | count at 7 days [4, 19]: 1 | count at 14 days [4, 20]: 1 | count at 14 days [4, 21]: 1 | count at 28 days [4, 22]: 1 | count at 28 days [4, 23]: 1 | number of microorganisms, 2 days ([4]; PET in shampoo, Candida albicans (CA), 2 days after inoculation): 220.000 | number of microorganisms, 7 days ([4]; PET in shampoo, Candida albicans (CA), 7 days after inoculation): 62.000 | number of microorganisms, 14 days ([4]; PET in shampoo, Candida albicans (CA), 14 days after inoculation): 8.100 | number of microorganisms, 28 days ([4]; PET in shampoo, Candida albicans (CA), 28 days after inoculation): 1 | AB germ count, 28 days [5, 15]: 1 | count at 2 days [5, 16]: 510.000 | count at 2 days [5, 17]: 670.000 | count at 7 days [5, 18]: 16.000 | count at 7 days [5, 19]: 410.000 | count at 14 days [5, 20]: 51.000 | count at 14 days [5, 21]: 63.000 | count at 28 days ([5]; 28 days after inoculation, listed as 0.4% 1,2-heptanediol): 1 | count at 28 days [5, 22]: 1 | count at 28 days [5, 23]: 1.100 | efficacy against Aspergillus brasiliensis ([5]; PET in formulation, result in words on Table 7): significantly efficacy | number of microorganisms, 2 days ([5]; PET in shampoo, Aspergillus brasiliensis (AB), 2 days after inoculation): 240.000 | number of microorganisms, 7 days ([5]; PET in shampoo, Aspergillus brasiliensis (AB), 7 days after inoculation): 220.000 | number of microorganisms, 14 days ([5]; PET in shampoo, Aspergillus brasiliensis (AB), 14 days after inoculation): 150.000 | number of microorganisms, 28 days ([5]; PET in shampoo, Aspergillus brasiliensis (AB), 28 days after inoculation): 19.000 | antimicrobial efficacy against bacteria [6]: concentration dependent antimicrobial efficacy | antimicrobial efficacy against yeast [7]: concentration dependent antimicrobial efficacy | antimicrobial efficacy against fungi [8]: concentration dependent antimicrobial efficacy | Maximum solubility in water [9]: 2.5 % by weight
